Test results as given in patent publication US20260248831A1, “NON-TUBERCULOSIS MYCOBACTERIA INFECTION TREATMENT” (AN2 Therapeutics, Inc., priority 2021, published 2026).
Structures can show the parent of a compound that is named as a salt.

Columns and labels:
[1] = test system: NTM strains; assay: Checkerboard synergy testing, summary over all strains tested; type: cell-based, nontuberculous mycobacteria; conditions: clarithromycin, ethambutol, rifabutin, amikacin, bedaquiline
[2] = test system: M. intracellulare 20-S-13; assay: Checkerboard antibacterial synergy testing of EBO pairwise combinations; type: cell-based; conditions: M. intracellulare 20-S-13, clarithromycin resistant strain
Description: Frozen stocks of the drugs were prepared at 5 or 2 mg/ml and frozen in aliquots at −20° C. On the day of the experiment the stocks were thawed and diluted to the appropriate concentration. Middlebrook 7H9 broth and agar, CA-MH agar and Middlebrook OADC were all purchased from Becton-Dickinson and Company (Sparks, MD).
M. avium 2285R (Verma et al. Microbiol (2019) 10: 693) and M intracellulare DNA000111 were obtained from Diane Ordway (Colorado State University, Fort Collins, CO). M. chimaera 20-S-05 and the macrolide/bedaquiline-resistant M. intracellulare 20-S-13 isolate were obtained from Barbara Brown-Elliott (Mycobacteria/Nocardia Research Laboratory, University of Texas Health Science Center, Tyler Tx). […]
The checkerboard methodology was used to test for synergy and antagonism using Middlebrook 7H9+5% OADC (Dubos et al. Am Rev Tuberc (1947) 56:334-45) as the microbiology growth media. […] Synergistic or antagonistic activity was determined using the sum of the fractional inhibitory concentration (ΣFIC) index. The FTC index is calculated as the sum of FTC A+FTC B, where FTC A is the MIC of drug A in the combination of drugs A and B divided by the MIC of drug A alone, plus the MIC of drug B in the combination of drugs A and B divided by the MIC of drug B alone. […]

[3] = test system: MAC strains; assay: Checkerboard synergy testing, summary over the MAC strains tested; type: cell-based, Mycobacterium avium complex; conditions: out of a total of 5 MAC strains tested
[4] = in vivo; cited from earlier work

NC[C@H]1OB(O)c2c(OCCCO)cccc21 [EBO, epetraborole hydrochloride]
Antagonism of EBO activity by second drug [1]: not antagonized

CC[C@@H](CO)NCCN[C@@H](CC)CO [EMB, Ethambutol]
Interaction between ethambutol and EBO (in words) [2]: indifference | Synergy/additivity with EBO, number of strains [3]: synergy was observed with 2 strains and additivity with an additional 2 strains

NC[C@H]1OB(O)c2c(OCCCO)cccc21 [epetraborole, Epetraborole]
Course of hematological abnormalities [4]: return to baseline values after discontinuation of epetraborole | RBC parameters (including hemoglobin, RBCs, and reticulocyte counts) [4]: Decreases in RBC parameters
